The record followed here is patent publication US7129257B1, “Pyrazolo[3,4- e]benzoxazoles for the treatment of glaucoma” (Alcon, Inc., priority 2003, dated 2006).

Data set [1] deals with T1, 5-HT2A receptor (Rattus norvegicus, UniProt P14842). Description: 5-HT2 Receptor Binding Assay ([125I]DOI competition). The conditions noted are these: [125I]DOI binding, post mortem rat or human cerebral cortex homogenates. As to the method: The procedures described herein in Method 1 can be used to confirm a compound's 5-HT2 binding affinity.
5-HT2 Receptor Binding Assay
Aliquots of post mortem rat or human cerebral cortex homogenates (400 μL) dispersed in 50 mM TrisHCl buffer (pH 7.4) are incubated with [^125I]DOI (80 pM final) in the absence or presence of methiothepin (10 μM final) to define total and non-specific binding, respectively, in a total volume of 0.5 mL. The assay mixture is incubated for 1 hour at 23° C. in polypropylene tubes and the assays terminated by rapid vacuum filtration over Whatman GF/B glass fiber filters previously soaked in 0.3% polyethyleneimine using ice-cold buffer. Test compounds (at different concentrations) are substituted for methiothepin. Filter-bound radioactivity is determined by scintillation spectrometry on a beta counter. The data are analyzed using a non-linear, iterative curve-fitting computer program [Trends Pharmacol. Sci., 16, 413 (1995)] to determine the compound affinity parameter. The concentration of the compound needed to inhibit the [^125I]DOI binding by 50% of the maximum is termed the IC50 or Ki value.

The target of data set [2] is T1, 5-HT2A receptor. Description: 5-HT2 Functional Assay: [Ca2+]i Mobilization (FLIPR). As to conditions: for EC50: [Ca2+]i mobilization, rat vascular smooth muscle cells A7r5; for Emax: percentage of maximum 5-HT-induced response, A7r5 cells. Set-up: endogenous in cells; host or cells: A7r5 rat vascular smooth muscle cells. In kind it is cell-based. As to the method: 5-HT2 Functional Assay: [Ca^2+]i; Mobilization
The receptor-mediated mobilization on intracellular calcium ([Ca^2+]i) was studied using the Fluorescence Imaging Plate Reader (FLIPR) instrument. Rat vascular smooth muscle cells, A7r5, were grown in a normal media of DMEM/10% FBS and 10 μg/mL gentamycin. Confluent cell monolayers were trypsinized, pelleted, and re-suspended in normal media. Cells were seeded in a 50 μL volume at a density of 20,000 cells/well in a black wall, 96-well tissue culture plate and grown for 2 days.
On the day of the experiment, one vial of FLIPR Calcium Assay Kit dye was re-suspended in 50 mL of a FLIPR buffer consisting of Hank's Balanced Salt Solution (HBSS), 20 mM HEPES, and 2.5 mM probenecid, pH 7.4. Cells were loaded with the calcium-sensitive dye by addition of an equal volume (50 μL) to each well of the 96-well plate and incubated with dye for 1 h at 23° C.
Typically, test compounds were stored at 25 μM in 50% DMSO/50% Ethanol solvent. Compounds were diluted 1:50 in 20% DMSO/20% Ethanol. For “hit” screening, compounds were further diluted 1:10 in FLIPR buffer and tested at a final concentration of 10 μM. For dose-response experiments, compounds were diluted 1:50 in FLIPR buffer and serially diluted 1:10 to give a 5- or 8-point dose-response curve.
The compound plate and cell plate were placed in the FLIPR instrument. At the beginning of an experimental run, a signal test was performed to check the basal fluorescence signal from the dye-loaded cells and the uniformity of the signal across the plate. The basal fluorescence was adjusted between 8000–12000 counts by modifying the exposure time, the camera F-stop, or the laser power. Instrument settings for a typical assay were the following: laser power 0.3–0.6 W, camera F-stop F/2, and exposure time 0.4 sec. An aliquot (25 μL) of the test compound was added to the existing 100 μL dye-loaded cells at a dispensing speed of 50 μL/sec. Fluorescence data were collected in real-time at 1.0 sec intervals for the first 60 secs and at 6.0 sec intervals for an additional 120 secs. Responses were measured as peak fluorescence intensity minus basal and where appropriate were expressed as a percentage of a maximum 5-HT-induced response. When the compounds were tested as antagonists against 10 μM 5-HT, they were incubated with the cells for 15 minutes prior to the addition of 5-HT.

For orientation: IC50 means the midpoint of a concentration-inhibition curve. Low readings indicate inhibition by little substance, high ones a need for much substance. As usually defined, the EC50 is the concentration that produces a half-maximal response. A word on the Emax: it is the maximal effect, on the per cent scale that the assay sets. As a reminder, the melting point is the temperature of the solid-liquid transition.

T1 sequence (P14842 whole entry): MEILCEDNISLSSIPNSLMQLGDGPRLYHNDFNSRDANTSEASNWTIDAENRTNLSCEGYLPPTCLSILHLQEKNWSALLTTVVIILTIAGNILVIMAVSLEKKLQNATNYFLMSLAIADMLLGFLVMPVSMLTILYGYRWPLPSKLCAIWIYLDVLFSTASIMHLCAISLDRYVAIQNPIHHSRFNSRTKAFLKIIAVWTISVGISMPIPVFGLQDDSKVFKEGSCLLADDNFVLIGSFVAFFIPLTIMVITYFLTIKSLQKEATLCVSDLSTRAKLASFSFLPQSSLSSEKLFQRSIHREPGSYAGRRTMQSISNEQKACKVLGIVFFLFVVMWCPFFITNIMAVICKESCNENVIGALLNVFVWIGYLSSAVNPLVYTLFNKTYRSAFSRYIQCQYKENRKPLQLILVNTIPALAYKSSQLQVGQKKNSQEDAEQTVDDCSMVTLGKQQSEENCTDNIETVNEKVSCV

In turn, `COc1nc2c(ccc3cnn(C[C@H](C)N)c32)o1` [Example 1, (S)-2-(7-Methoxy-1H-pyrazolo[3,4-e]benzoxazol-1-yl)-1-methylethylamine] yielded an IC50 on 5-HT2A receptor [1] of 8 nM. On 5-HT2A receptor [2], this compound gave an EC50 of 352 nM and an Emax of 72%.

In the case of `COCc1nc2c(ccc3cnn(C[C@H](C)N)c32)o1` [Example 2, (S)-2-[7-(Methoxymethyl)-1H-pyrazolo[3,4-e]benzoxazol-1-yl]-1-methylethylamine], the melting point is 40 to 43 °C. For the same compound, the IC50 at 5-HT2A receptor [1] amounted to 6 nM. At 5-HT2A receptor [2], the EC50 was found to be 174 nM and the Emax is 88%.

With `C[C@H](N)Cn1ncc2ccc3oc(C(N)=O)nc3c21` [Example 3, 1-[(S)-2-Aminopropyl]-1H-pyrazolo[3,4-e]benzoxazole-7-carboxylic acid amide], the melting point is 60 to 65 °C. Also, on 5-HT2A receptor [2], the EC50 stood at 445 nM and the Emax was 72%.

On to `CNC(=O)c1nc2c(ccc3cnn(C[C@H](C)N)c32)o1` [Example 4, 1-[(S)-2-Aminopropyl]-1H-pyrazolo[3,4-e]benzoxazole-7-carboxylic acid methylamide], for which, at 5-HT2A receptor [1], the IC50 came to 19 nM. For the same compound, at 5-HT2A receptor [2], a half-maximal response (EC50) required 907 nM and the Emax was 77%.
